Measured values taken from ChEMBL document CHEMBL1201862, “PubChem BioAssay data set” (2004).
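Values below derive from 48-hour exposures of cells grown in 96-well plates, with endpoints linearly interpolated between the two concentrations bracketing the appropriate inhibition level. Abbreviation: GI50, concentration required for 50% inhibition of growth.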 Active and inactive are the calls of the source. Cut-off read from the data, not from the text of the source: active = GI50 up to about 1.1 µM and inactive = higher. Where a SMILES comes first, the peptide text is derived from it. The star is where a group is joined. Cbz = O=C(OCc1ccccc1)*; Boc = CC(C)(C)OC(=O)*; OSu = O=C1CCC(=O)N1O*; Bn = c1ccc(C*)cc1

How the values were obtained:
Assay in all cases: inhibition of tumour cell growth, NCI panel, 48 h
ACHN = tested on: ACHN
CCRF-CEM = tested on: CCRF-CEM
EKVX = tested on: EKVX
HCT-15 = tested on: HCT-15
HOP-62 = tested on: HOP-62
K562 = tested on: K562
KM12 = tested on: KM12
M14 = tested on: M14
Malme-3M = tested on: Malme-3M
NCI-H23 = tested on: NCI-H23
NCI-H522 = tested on: NCI-H522
OVCAR-3 = tested on: OVCAR-3
SF-539 = tested on: SF-539
SK-MEL-5 = tested on: SK-MEL-5
SN12C = tested on: SN12C
SNB-19 = tested on: SNB-19
UACC-62 = tested on: UACC-62
LOX IMVI = tested on: LOX IMVI
SW-620 = tested on: SW-620

Row | Compound | GI50 (ACHN) | GI50 (CCRF-CEM) | GI50 (EKVX) | GI50 (HCT-15) | GI50 (HOP-62) | GI50 (K562) | GI50 (KM12) | GI50 (M14) | GI50 (Malme-3M) | GI50 (NCI-H23) | GI50 (NCI-H522) | GI50 (OVCAR-3) | GI50 (SF-539) | GI50 (SK-MEL-5) | GI50 (SN12C) | GI50 (SNB-19) | GI50 (UACC-62) | GI50 (LOX IMVI) | GI50 (SW-620)
1 | O=C1CCC2CCOc3ccc(O)c1c32 (stereo unspecified) | > 100 µM (inactive) | > 100 µM (inactive) | > 100 µM (inactive) | > 100 µM | > 100 µM (inactive) | > 100 µM (inactive) | > 100 µM (inactive) | > 100 µM (inactive) | > 100 µM (inactive) | > 100 µM (inactive) | > 100 µM (inactive) | > 100 µM (inactive) | > 100 µM (inactive) | > 100 µM (inactive) | > 100 µM (inactive) | > 100 µM (inactive) | > 100 µM (inactive) |  | 
2 | N#CC1C(=O)NC(=O)C1=O (stereo unspecified) | > 100 µM (inactive) |  | > 100 µM (inactive) | > 100 µM | > 100 µM (inactive) | > 100 µM (inactive) | > 100 µM (inactive) | > 100 µM (inactive) | > 100 µM (inactive) | > 100 µM (inactive) | > 100 µM (inactive) | > 100 µM (inactive) | > 100 µM (inactive) | > 100 µM (inactive) | > 100 µM (inactive) | > 100 µM (inactive) | > 100 µM (inactive) | > 100 µM (inactive) | > 100 µM (inactive)
3 | COc1cc(O)c(C(=O)/C=C/c2ccc(OC)c(OCc3ccccc3)c2)c(OC)c1 | 5.58 µM (inactive) | 3.92 µM (inactive) | > 100 µM (inactive) | 10.3 µM | > 100 µM (inactive) | 5.93 µM (inactive) | 31 µM (inactive) | > 100 µM (inactive) |  | 6.52 µM (inactive) | 7.46 µM (inactive) | 38.5 µM (inactive) | > 100 µM (inactive) | > 100 µM (inactive) | > 100 µM (inactive) | > 100 µM (inactive) | 1.42 µM (inactive) | 33.7 µM (inactive) | 36.5 µM (inactive)
4 | COc1cc(-c2cc(-c3cc([N+](=O)[O-])c(/C=N/NC(=O)c4ccncc4)o3)ccc2OC)ccc1C | > 100 µM (inactive) | > 10 µM (inactive) | > 100 µM (inactive) |  | > 100 µM (inactive) | > 100 µM (inactive) |  | > 100 µM (inactive) | > 100 µM (inactive) | > 100 µM (inactive) | > 100 µM (inactive) | > 100 µM (inactive) | > 100 µM (inactive) |  | > 100 µM (inactive) | > 100 µM (inactive) | > 100 µM (inactive) | > 100 µM (inactive) | > 100 µM (inactive)
5 | CCc1cc(C)cc2[n+]1CC=C2.[O-][Cl+3]([O-])([O-])[O-] | 10.4 µM (inactive) |  | 25.4 µM (inactive) |  | 18.7 µM (inactive) |  | 32.9 µM (inactive) | 22.3 µM (inactive) | 15.9 µM (inactive) | 13.9 µM (inactive) | 13.1 µM (inactive) |  | 26.7 µM (inactive) |  | 22.2 µM (inactive) | 28.6 µM (inactive) |  | 32.7 µM (inactive) | 7.33 µM (inactive)
6 | COC1=CC2=NCCc3n[nH]c(c32)C1=O | 19.2 µM (inactive) |  | 16.9 µM (inactive) | 46.3 µM | 31.7 µM (inactive) | 0.0545 µM (active) | 28.1 µM (inactive) | 15 µM (inactive) | 16.3 µM (inactive) | 14.4 µM (inactive) | 3.51 µM (inactive) | 15.9 µM (inactive) | 17.3 µM (inactive) | 18.3 µM (inactive) | 13.7 µM (inactive) | 46 µM (inactive) | 14 µM (inactive) | 2.35 µM (inactive) | 13.6 µM (inactive)
7 | CC(NC(=O)OC(C)(C)C)C(=O)NC(Cc1ccccc1)C(=O)NCC(=O)Oc1c(Cl)c(Cl)c(Cl)c(Cl)c1Cl (stereo unspecified) | 25 µM (inactive) |  | 17.8 µM (inactive) | > 10 µM | 18.7 µM (inactive) | 30.6 µM (inactive) | 25 µM (inactive) | 26.2 µM (inactive) | 20.7 µM (inactive) | 18.7 µM (inactive) |  |  |  | 13.6 µM (inactive) | 14.5 µM (inactive) | 29.3 µM (inactive) | 22.3 µM (inactive) |  | 20.1 µM (inactive)
8 | COc1ccc(C2C3=CONC3CC3CCCCC32)cc1 (stereo unspecified) | 51.5 µM (inactive) | 42.1 µM (inactive) |  |  | > 100 µM (inactive) | 39.4 µM (inactive) |  | 54.5 µM (inactive) | 43.3 µM (inactive) | 35.2 µM (inactive) | 29.6 µM (inactive) | 39.8 µM (inactive) |  | 50.8 µM (inactive) |  | 92.7 µM (inactive) | 70.1 µM (inactive) | 69.7 µM (inactive) | > 100 µM (inactive)
9 | CCCN(CCC)C(=O)c1nc(N)nc(-c2ccc(OC)cc2)c1-c1ccc(OC)cc1 | > 100 µM (inactive) | > 100 µM (inactive) | > 100 µM (inactive) | > 100 µM |  | 84.1 µM (inactive) | > 100 µM (inactive) | > 100 µM (inactive) | > 100 µM (inactive) | > 100 µM (inactive) | 98.9 µM (inactive) | > 100 µM (inactive) | > 100 µM (inactive) | > 100 µM (inactive) | > 100 µM (inactive) | > 100 µM (inactive) | > 100 µM (inactive) |  | > 100 µM (inactive)
10 | O=S(=O)(O)c1cc(/N=N/c2c(O)ccc3ccccc23)c2c(S(=O)(=O)O)cccc2c1 | > 100 µM (inactive) | > 100 µM (inactive) | > 100 µM (inactive) | > 100 µM | > 100 µM (inactive) | > 100 µM (inactive) | > 100 µM (inactive) | > 100 µM (inactive) | > 100 µM (inactive) | > 100 µM (inactive) | > 100 µM (inactive) | > 100 µM (inactive) | > 100 µM (inactive) | > 100 µM (inactive) |  | > 100 µM (inactive) | > 100 µM (inactive) |  | > 100 µM (inactive)
11 | CC(C)(C)OC(=O)NC(Cc1ccc(OCc2ccccc2)cc1)C(=O)NC(CCCCNC(=O)OCc1ccccc1)C(=O)ON1C(=O)CCC1=O (stereo unspecified) (Boc-Tyr(Bn)-Lys(Cbz)-OSu; configuration not given here) | 20.7 µM (inactive) |  | 42.6 µM (inactive) | 16.7 µM | 19.5 µM (inactive) | 27 µM (inactive) | 23.9 µM (inactive) | 19.4 µM (inactive) | 23.1 µM (inactive) | 17.8 µM (inactive) |  |  |  | 22.4 µM (inactive) | 16.7 µM (inactive) | 16.7 µM (inactive) | 18.2 µM (inactive) |  | 20.7 µM (inactive)
12 | CCOC(=O)C(=O)Nc1nc2c(s1)C(=O)c1ccccc1C2=O | 14.9 µM (inactive) | 5.05 µM (inactive) | 16.1 µM (inactive) | 15.6 µM | 18.9 µM (inactive) | 6.03 µM (inactive) | 16 µM (inactive) | 15.7 µM (inactive) | 12.3 µM (inactive) | 13.5 µM (inactive) | 14.9 µM (inactive) | 5.62 µM (inactive) | 17.7 µM (inactive) | 14.3 µM (inactive) | 16.5 µM (inactive) | 17.9 µM (inactive) | 17.5 µM (inactive) |  | 13.4 µM (inactive)
13 | CCOc1ccc(/C=N\N2C(=O)c3ccccc3C2=O)cc1 | > 100 µM (inactive) | > 100 µM (inactive) | > 100 µM (inactive) | > 100 µM | > 100 µM (inactive) | > 100 µM (inactive) | > 100 µM (inactive) | > 100 µM (inactive) | > 100 µM (inactive) | > 100 µM (inactive) |  | > 100 µM (inactive) | > 100 µM (inactive) | > 100 µM (inactive) | > 100 µM (inactive) | > 100 µM (inactive) | > 100 µM (inactive) | > 100 µM (inactive) | > 100 µM (inactive)
14 | O=C1NN=CN2C(=O)CCC12 (stereo unspecified) | > 100 µM (inactive) | > 100 µM (inactive) | > 100 µM (inactive) | > 100 µM | > 100 µM (inactive) | > 100 µM (inactive) | > 100 µM (inactive) | > 100 µM (inactive) |  | > 100 µM (inactive) |  | > 100 µM (inactive) | > 100 µM (inactive) | > 100 µM (inactive) | > 100 µM (inactive) | > 100 µM (inactive) | > 100 µM (inactive) | > 100 µM (inactive) | > 100 µM (inactive)
15 | Cc1cc(NS(=O)(=O)c2ccc(NC(=O)c3cccc4c(=O)c5ccccc5[nH]c34)cc2)no1 | 65.6 µM (inactive) | 32.6 µM (inactive) | 43.6 µM (inactive) | 66.7 µM | 21.6 µM (inactive) | 36.1 µM (inactive) | 78.3 µM (inactive) |  | 63.1 µM (inactive) | 60.7 µM (inactive) | 14.2 µM (inactive) | 29.4 µM (inactive) | 28.9 µM (inactive) | 40.8 µM (inactive) | 44.1 µM (inactive) | 36.2 µM (inactive) | 26.1 µM (inactive) | 31.4 µM (inactive) | 55.6 µM (inactive)
16 | Cc1ccc(/N=C/c2ccc3c(c2)OCO3)cc1C | > 100 µM (inactive) | > 100 µM (inactive) | > 100 µM (inactive) | > 100 µM |  | > 10 µM (inactive) | > 100 µM (inactive) | > 100 µM (inactive) | > 100 µM (inactive) | > 100 µM (inactive) | > 100 µM (inactive) | > 100 µM (inactive) | > 100 µM (inactive) | > 100 µM (inactive) | > 100 µM (inactive) | > 100 µM (inactive) | > 100 µM (inactive) | > 100 µM (inactive) | > 100 µM (inactive)
17 | CC(=O)Nc1ccc(S(=O)(=O)N/N=C/c2cc(I)cc([N+](=O)[O-])c2O)cc1 | > 100 µM (inactive) | 35.6 µM (inactive) | 60.5 µM (inactive) | 75.5 µM |  | 57.3 µM (inactive) | > 100 µM (inactive) | 46.6 µM (inactive) | 46.3 µM (inactive) | 29.5 µM (inactive) |  | > 100 µM (inactive) |  | 44 µM (inactive) | 64.3 µM (inactive) | 55.3 µM (inactive) | 30.3 µM (inactive) | 80.9 µM (inactive) | > 100 µM (inactive)
